Laboratory results reported in patent publication US9908880B2, “Substituted imidazoquinolines” (4SC AG, priority 2008, dated 2018).

How the values were obtained:
[1] = system: PCIR-1 cells; test: Cytokine mRNA induction in PCIR-1 human cancer cell line (TaqMan PCR); format: cell-based; conditions: for induction of IP-10: after 15 h
Description: Expression of IL8 mRNA was measured with TaqMan PCR after 16 hours incubation of cells with H2006, LPS or Resiquimod alone and in combination with cloroquine.
Cellular assays using a human cancer cell line (PCIR-1) or human PBMC fractions to test compounds for activating TLR7 are established.
Specificity for TLR7 and 9 was checked by adding chloroquine, which abrogates signaling through endosomal TLRs. The PCIR-1 system is suited for measuring the interferone-linked cytokine IP10 by a bead-based assay in the 384-well format.
TLR mRNA Expression in PCIR-1 (TaqMan PCR Analysis)
Also response to poly I-C double-stranded RNA (TLR 3 ago); 40-fold induction of IP-10 after 15 h) and MALP-2 (TLR 2/6 hetero-dimer ago, 100-fold induction of IP-10 after 15 h) is detected.
In contrast TLR4 signaling by LPS is not affected (FIG. 1).

[2] = system: superficial basal cell carcinomas; conditions: marketed 5% cream (Aldara), topical; cited from earlier work
[3] = system: Renca LacZ tumor cell lung metastases; test: Renca lung metastasis model
Description: (§1) In particular, female Balb/c mice (n=10) were treated for 4 consecutive days starting day 1 or day 8 after Renca LacZ tumor cell injection, respectively. The compounds were applied in 20% PEG, ODNs in 0.9% NaCl as indicated. Lungs were excised 25 days after tumor cell injection.
as §1, with “compounds (small molecules (SMOLs))” for “compounds”
Abstract 3552, Proc Am Cancer Res 48, 2007.
In particular, female Balb/c mice (n=10) were treated for 4 consecutive days starting day 1 or day 8 after Renca LacZ tumor cell injection, respectively. The SMOLs were applied in 20% PEG, the oligonucleotides in 0.9% NaCl as indicated. Lungs were excised 25 days after tumor cell injection (see FIG. 4A). Further, female Balb/c mice (n=5) were treated for 4 consecutive days as indicated. The SMOLs were applied in 20% PEG, oligonucleotides in 0.9% NaCl. At day 4 of treatment, blood was collected via orbital plexus and spleens were excised. Subsequently, mRNA was isolated for expression analysis via qPCR. Data were normalized to vehicle control (mean set to 1). Statistical evaluation was performed via Mann-Whitney test (see FIG. 4B). […]

With MALP-2 as the molecule, how does the “induction of IP-10” value [1] read?
Its value is 100 fold.

For poly I-C, which “induction of IP-10” value [1] is on record?
Its value is 40 fold.

Which “signaling via TLR7 and TLR9 on addition of chloroquine” value ([1]; FIG. 1, IL8 mRNA after 16 hours) does the source give for `CCN(CC)CCCC(C)Nc1ccnc2cc(Cl)ccc12` (stereo not drawn) [chloroquine] here?
The value was “completely blocked”.

For `CC(C)Cn1cnc2c(N)nc3ccccc3c21` [Imiquimod, imiquimod], which “5 year clearance of superficial basal cell carcinomas” value [2] is on record?
The value was “approx 80%”.

With `Nc1nc2c(sc(=O)n2[C@@H]2O[C@H](CO)[C@@H](O)[C@H]2O)c(=O)[nH]1` [isatoribine, 7-thia-8-oxoguanosine] as the molecule, how does the “emergence of lung metastases” value ([3]; murine Renca lung metastasis model) read?
Its value is “virtually completely suppressed”.

With `CCc1nc2c(N)nc3ccccc3c2n1CCCCN(C(C)=O)C1CCOC1C` (stereo not drawn) [Example III, 3-{acetyl[4-(4-amino-2-ethyl-1H-imidazo[4,5-c]quinolin-1-yl)butyl]amino}-2,5-anhydro-1,3,4-trideoxypentitol] as the molecule, how does the “anti-metastatic effect (clearance of the lungs)” value ([3]; short treatment (d1-4), FIG. 5) read?
Its value is “strong anti-metastatic effect with virtually complete clearance of the lungs”.
